The values below come from ChEMBL document CHEMBL5154704 (Bioorg Med Chem, 2022).

Each structure is given as a SMILES string.

Data set [1] deals with Free fatty acid receptor 1 (Homo sapiens, UniProt O14842). The data set can be described thus: Agonist activity at human FFA1 expressed in CHO cells assessed as increase in calcium level measured by Fluo-4-AM staining based FLIPR assay. Type of data set: functional, cell-based.
A short description of data set [2]: Toxicity in ICR mouse at 500 mg/kg, ig measured after 7 days. Type of data set: organism-based. The settings on record: in vivo, po, 168 h, time 7 day.

Free fatty acid receptor 1, sequence (O14842 whole entry): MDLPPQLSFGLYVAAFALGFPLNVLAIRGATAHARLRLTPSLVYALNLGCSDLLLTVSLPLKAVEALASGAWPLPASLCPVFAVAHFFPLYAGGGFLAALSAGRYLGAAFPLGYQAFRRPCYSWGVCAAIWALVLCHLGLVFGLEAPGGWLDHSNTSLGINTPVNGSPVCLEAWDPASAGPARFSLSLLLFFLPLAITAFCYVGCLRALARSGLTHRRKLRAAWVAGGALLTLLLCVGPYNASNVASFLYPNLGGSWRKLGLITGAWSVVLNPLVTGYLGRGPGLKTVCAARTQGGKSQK

In the case of `Cc1cc(OCCCS(C)(=O)=O)ccc1-c1cccc(COc2ccc(OCC(=O)O)c(F)c2)c1`, the EC50 in data set [1] is 61 nM.
Regarding `COc1ccc2cc(-c3cccc(COc4ccc(OCC(=O)O)c(F)c4)c3)ccc2c1`, the Activity entry in data set [2] is reported as “Non-Toxic”.
